Measured values: patent publication US6503926B2, “Chemokine receptor antagonists and methods of use therefor” (Millennium Pharmaceuticals, Inc., priority 1998, dated 2003)

Molecular target: T1, THP-1 cell membranes (RANTES / MIP-1α binding; chemokine receptor, believed CCR1) (Homo sapiens, UniProt P32246)
T1 sequence (P32246 1-355): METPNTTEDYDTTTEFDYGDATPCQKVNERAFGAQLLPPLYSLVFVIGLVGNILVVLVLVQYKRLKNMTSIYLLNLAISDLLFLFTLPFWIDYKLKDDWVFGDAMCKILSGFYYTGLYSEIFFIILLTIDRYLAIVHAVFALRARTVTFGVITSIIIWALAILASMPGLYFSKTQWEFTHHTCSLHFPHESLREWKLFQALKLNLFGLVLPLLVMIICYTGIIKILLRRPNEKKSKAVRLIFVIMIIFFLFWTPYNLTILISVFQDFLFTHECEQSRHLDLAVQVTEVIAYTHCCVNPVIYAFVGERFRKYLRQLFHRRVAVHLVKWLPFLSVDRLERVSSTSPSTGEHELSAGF
Test: Receptor binding assay, 125I-RANTES or 125I-MIP-1α binding to THP-1 cell membranes
Conditions: 125I-RANTES or 125I-MIP-1α as ligand, 60 min at room temperature, read-out: IC50 (inhibitor concentration required for 50% inhibition of specific binding)
Description: Membranes were prepared from THP-1 cells (ATCC #TIB202). Cells were harvested by centrifugation, washed twice with PBS (phosphate-buffered saline), and the cell pellets were frozen at -70 to -85° C. The frozen pellet was thawed in ice-cold lysis buffer consisting of 5 mM HEPES (N-2-hydroxyethylpiperazine-N'-2-ethane-sulfonic acid) pH 7.5, 2 mM EDTA (ethylenediaminetetraacetic acid), 5 μg/ml each aprotinin, leupeptin, and chymostatin (protease inhibitors), and 100 μg/ml PMSF (phenyl methane sulfonyl fluoride-also a protease inhibitor), at a concentration of 1 to 5×10^7 cells/ml. This procedure results in cell lysis. The suspension was mixed well to resuspend all of the frozen cell pellet. Nuclei and cell debris were removed by centrifugation of 400×g for 10 minutes at 4° C. The supernatant was transferred to a fresh tube and the membrane fragments were collected by centrifugation at 25,000×g for 30 minutes at 4° C. The supernatant was aspirated and the pellet was resuspended in freezing buffer consisting of 10 mM HEPES pH 7.5, 300 mM sucrose, 1 μg/ml each aprotinin, leupeptin, and chymostatin, and 10 μg/ml PMSF (approximately 0.1 ml per each 10^8 cells). All clumps were resolved using a minihomogenizer, and the total protein concentration was determined using a protein assay kit (Bio-Rad, Hercules, Calif., cat #500-0002). The membrane solution was then aliquoted and frozen at -70 to -85° C. until needed. Binding Assays-utilized the membranes described above. Membrane protein (2 to 20 μg total membrane protein) was incubated with 0.1 to 0.2 nM ^125I-labeled RANTES or MIP-1α with or without unlabeled competitor (RANTES or MIP-1α) or various concentrations of compounds. The binding reactions were performed in 60 to 100 μl of a binding buffer consisting of 10 mM HEPES pH 7.2, 1 mM CaCl2, 5 mM MgCl2, and 0.5% BSA (bovine serum albumin), for 60 min at room temperature. The binding reactions were terminated by harvesting the membranes by rapid filtration through glass fiber filters (GF/B or GF/C, Packard) which were presoaked in 0.3% polyethyleneimine. The filters were rinsed with approximately 600 μl of binding buffer containing 0.5 M NaCl, dried, and the amount of bound radioactivity was determined by scintillation counting in a Topcount beta-plate counter. […] Specific binding is defined as the total binding minus the non-specific binding; non-specific binding is the amount of cpm still detected in the presence of excess unlabeled Rantes or ^125MIP-1α.

Compound | IC50 [nM]
COc1ccc(OC)c(C(=CCCN2CCC(O)(c3ccc(Cl)cc3)CC2)c2cccnc2)c1 [Example 3, 4-(4-Chlorophenyl)-1-[4-(2,5-dimethoxyphenyl)-4-(3-pyridinyl)-3-butenyl]piperidin-4-ol] | < 1000
OC1(c2ccc(Cl)cc2)CCN(CCC=C(c2ccccc2)c2cccnc2)CC1 [Example 2, 4-(4-Chlorophenyl)-1-[4-phenyl-4-(3-pyridinyl)-3-butenyl]piperidin-4-ol] | < 1000
COc1cccc(C(=CCCN2CCC(O)(c3ccc(Cl)cc3)CC2)c2cccnc2)c1 [Example 1, 4-(4-Chlorophenyl)-1-[4-(3-methoxyphenyl)-4-(3-pyridinyl)-3-butenyl]piperidin-4-ol] | < 1000
OC1(c2ccc(Cl)cc2)CCN(CCC=C(c2cccnc2)c2ccnc(Br)c2)CC1 [Example 4, 1-[4-(2-Bromo-4-pyridinyl)-4-(3-pyridinyl)-3-butenyl]-4-(4-chlorophenyl)piperidin-4-ol] | > 1000
